Results from PubChem BioAssay AID248 (DTP/NCI, 2004).
Several values for one entry are separate records, joined by “and”; a condition that tells them apart may be missing. Equal values may be shown once. Toxic doses and inconclusive results are not listed. Rule as the data show it: active = T/C of 150% or more; inactive = T/C below 125%.

System: L1210 leukemia ip in BDF1 mice, survival T/C
Assay: NCI In Vivo Anticancer Drug Screen. Data for tumor model L1210 Leukemia (intraperitoneal) in B6D2F1 (BDF1) mice
Conditions: higher = longer survival
Procedure, shortened: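 Value reflects the ratio of survival in compound-treated mice to survival in vehicle-treated controls, with both groups carrying the same transplanted tumor.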

Measured: T/C

O=C1OC(C(O)CO)C(O)=C1O (configuration not stated)
inactive: endpoint: mean survival time, dose: 0.05 mg/kg/injection, schedule: Q01DX005 (iv), vehicle: saline 98 % of control | endpoint: mean survival time, dose: 0.05 mg/kg/injection, schedule: Q01DX009 (oral), vehicle: saline 102 % of control | endpoint: mean survival time, dose: 0.1 mg/kg/injection, schedule: Q01DX005 (iv), vehicle: saline 97 % of control | endpoint: mean survival time, dose: 0.1 mg/kg/injection, schedule: Q01DX009 (ip), vehicle: saline 95 % of control | endpoint: mean survival time, dose: 0.1 mg/kg/injection, schedule: Q01DX009 (oral), vehicle: saline 98 % of control | endpoint: mean survival time, dose: 0.1 mg/kg/injection, schedule: Q01DX009 (sc), vehicle: saline 98 % of control | endpoint: mean survival time, dose: 0.12 mg/kg/injection, schedule: Q01DX009 (ip), vehicle: saline 100 % of control | endpoint: mean survival time, dose: 0.13 mg/kg/injection, schedule: Q01DX009 (ip), vehicle: saline 100 % of control | endpoint: mean survival time, dose: 0.2 mg/kg/injection, schedule: Q01DX005 (iv), vehicle: saline 102 % of control | endpoint: mean survival time, dose: 0.2 mg/kg/injection, schedule: Q01DX009 (im), vehicle: saline 98 % of control | endpoint: mean survival time, dose: 0.2 mg/kg/injection, schedule: Q01DX009 (ip), vehicle: saline 101 % of control | endpoint: mean survival time, dose: 0.39 mg/kg/injection, schedule: Q01DX005 (iv), vehicle: saline 95 % of control | endpoint: mean survival time, dose: 0.39 mg/kg/injection, schedule: Q01DX009 (im), vehicle: saline 95 % of control | endpoint: mean survival time, dose: 0.39 mg/kg/injection, schedule: Q01DX009 (ip), vehicle: saline 95 % of control | endpoint: mean survival time, dose: 0.39 mg/kg/injection, schedule: Q01DX009 (oral), vehicle: saline 98 % of control | endpoint: mean survival time, dose: 0.5 mg/kg/injection, schedule: Q01DX001 (ip), vehicle: saline 97 % of control | endpoint: mean survival time, dose: 0.5 mg/kg/injection, schedule: Q01DX009 (ip), vehicle: saline 96 % of control and 101 % of control | endpoint: mean survival time, dose: 0.78 mg/kg/injection, schedule: Q01DX005 (iv), vehicle: saline 98 % of control | endpoint: mean survival time, dose: 0.78 mg/kg/injection, schedule: Q01DX009 (im), vehicle: saline 93 % of control | endpoint: mean survival time, dose: 0.78 mg/kg/injection, schedule: Q01DX009 (ip), vehicle: saline 102 % of control | endpoint: mean survival time, dose: 0.78 mg/kg/injection, schedule: Q01DX009 (oral), vehicle: saline 99 % of control | endpoint: mean survival time, dose: 1.0 mg/kg/injection, schedule: Q01DX001 (ip), vehicle: saline 100 % of control and 101 % of control | endpoint: mean survival time, dose: 1.0 mg/kg/injection, schedule: Q01DX009 (ip), vehicle: saline 95 % of control and 101 % of control | endpoint: mean survival time, dose: 1.56 mg/kg/injection, schedule: Q01DX005 (iv), vehicle: saline 98 % of control | endpoint: mean survival time, dose: 1.56 mg/kg/injection, schedule: Q01DX009 (im), vehicle: saline 100 % of control | endpoint: mean survival time, dose: 1.56 mg/kg/injection, schedule: Q01DX009 (ip), vehicle: saline 93 % of control | endpoint: mean survival time, dose: 1.56 mg/kg/injection, schedule: Q01DX009 (oral), vehicle: saline 94 % of control | endpoint: mean survival time, dose: 2.0 mg/kg/injection, schedule: Q01DX001 (ip), vehicle: saline 101 % of control and 103 % of control | endpoint: mean survival time, dose: 2.0 mg/kg/injection, schedule: Q01DX009 (ip), vehicle: saline 95 % of control and 97 % of control | endpoint: mean survival time, dose: 3.12 mg/kg/injection, schedule: Q01DX005 (iv), vehicle: saline 95 % of control | endpoint: mean survival time, dose: 3.12 mg/kg/injection, schedule: Q01DX009 (im), vehicle: saline 95 % of control | endpoint: mean survival time, dose: 3.12 mg/kg/injection, schedule: Q01DX009 (oral), vehicle: saline 93 % of control | endpoint: mean survival time, dose: 3.12 mg/kg/injection, schedule: Q01DX009 (sc), vehicle: saline 96 % of control | endpoint: mean survival time, dose: 4.0 mg/kg/injection, schedule: Q01DX001 (ip), vehicle: saline 101 % of control and 104 % of control | endpoint: mean survival time, dose: 4.0 mg/kg/injection, schedule: Q01DX009 (ip), vehicle: saline 94 % of control and 101 % of control | endpoint: mean survival time, dose: 6.25 mg/kg/injection, schedule: Q01DX009 (im), vehicle: saline 98 % of control | endpoint: mean survival time, dose: 6.25 mg/kg/injection, schedule: Q01DX009 (ip), vehicle: saline 95 % of control | endpoint: mean survival time, dose: 6.25 mg/kg/injection, schedule: Q01DX009 (oral), vehicle: saline 98 % of control | endpoint: mean survival time, dose: 6.25 mg/kg/injection, schedule: Q01DX009 (sc), vehicle: saline 102 % of control | endpoint: mean survival time, dose: 8.0 mg/kg/injection, schedule: Q01DX001 (ip), vehicle: saline 100 % of control | endpoint: mean survival time, dose: 8.0 mg/kg/injection, schedule: Q01DX009 (ip), vehicle: saline 95 % of control and 97 % of control | endpoint: mean survival time, dose: 12.5 mg/kg/injection, schedule: Q01DX009 (im), vehicle: saline 100 % of control | endpoint: mean survival time, dose: 12.5 mg/kg/injection, schedule: Q01DX009 (ip), vehicle: saline 102 % of control | endpoint: mean survival time, dose: 12.5 mg/kg/injection, schedule: Q01DX009 (oral), vehicle: saline 100 % of control | endpoint: mean survival time, dose: 12.5 mg/kg/injection, schedule: Q01DX009 (sc), vehicle: saline 94 % of control | endpoint: mean survival time, dose: 16.0 mg/kg/injection, schedule: Q01DX001 (ip), vehicle: saline 94 % of control | endpoint: mean survival time, dose: 16.0 mg/kg/injection, schedule: Q01DX009 (ip), vehicle: saline 101 % of control | endpoint: mean survival time, dose: 25.0 mg/kg/injection, schedule: Q01DX009 (ip), vehicle: saline 95 % of control | endpoint: mean survival time, dose: 25.0 mg/kg/injection, schedule: Q01DX009 (sc), vehicle: saline 102 % of control | endpoint: mean survival time, dose: 32.0 mg/kg/injection, schedule: Q01DX001 (ip), vehicle: saline 97 % of control | endpoint: mean survival time, dose: 32.0 mg/kg/injection, schedule: Q01DX009 (ip), vehicle: saline 103 % of control | endpoint: mean survival time, dose: 37.5 mg/kg/injection, schedule: Q01DX009 (ip), vehicle: saline 98 % of control | endpoint: mean survival time, dose: 50.0 mg/kg/injection, schedule: Q01DX005 (iv), vehicle: saline 102 % of control | endpoint: mean survival time, dose: 50.0 mg/kg/injection, schedule: Q01DX009 (im), vehicle: saline 96 % of control | endpoint: mean survival time, dose: 50.0 mg/kg/injection, schedule: Q01DX009 (ip), vehicle: saline 96 % of control | endpoint: mean survival time, dose: 50.0 mg/kg/injection, schedule: Q01DX009 (oral), vehicle: saline 100 % of control | endpoint: mean survival time, dose: 64.0 mg/kg/injection, schedule: Q01DX001 (ip), vehicle: saline 97 % of control and 101 % of control | endpoint: mean survival time, dose: 100.0 mg/kg/injection, schedule: Q01DX001 (ip), vehicle: saline 96 % of control | endpoint: mean survival time, dose: 100.0 mg/kg/injection, schedule: Q01DX005 (iv), vehicle: saline 97 % of control | endpoint: mean survival time, dose: 100.0 mg/kg/injection, schedule: Q01DX009 (im), vehicle: saline 96 % of control | endpoint: mean survival time, dose: 100.0 mg/kg/injection, schedule: Q01DX009 (ip), vehicle: saline 93 % of control and 98 % of control | endpoint: mean survival time, dose: 100.0 mg/kg/injection, schedule: Q01DX009 (oral), vehicle: saline 103 % of control | endpoint: mean survival time, dose: 100.0 mg/kg/injection, schedule: Q04DX003 (ip), vehicle: saline 96 % of control | endpoint: mean survival time, dose: 150.0 mg/kg/injection, schedule: Q03HX024 (ip), vehicle: saline 93 % of control | endpoint: mean survival time, dose: 200.0 mg/kg/injection, schedule: Q01DX001 (ip), vehicle: saline 104 % of control | endpoint: mean survival time, dose: 200.0 mg/kg/injection, schedule: Q01DX005 (iv), vehicle: saline 102 % of control | endpoint: mean survival time, dose: 200.0 mg/kg/injection, schedule: Q01DX009 (im), vehicle: saline 98 % of control | endpoint: mean survival time, dose: 200.0 mg/kg/injection, schedule: Q01DX009 (ip), vehicle: saline 101 % of control | endpoint: mean survival time, dose: 200.0 mg/kg/injection, schedule: Q01DX009 (oral), vehicle: saline 96 % of control | endpoint: mean survival time, dose: 300.0 mg/kg/injection, schedule: Q01DX009 (ip), vehicle: saline 97 % of control | endpoint: mean survival time, dose: 400.0 mg/kg/injection, schedule: Q01DX001 (ip), vehicle: saline 93 % of control | endpoint: mean survival time, dose: 400.0 mg/kg/injection, schedule: Q01DX005 (iv), vehicle: saline 101 % of control | endpoint: mean survival time, dose: 400.0 mg/kg/injection, schedule: Q01DX009 (im), vehicle: saline 102 % of control | endpoint: mean survival time, dose: 400.0 mg/kg/injection, schedule: Q01DX009 (ip), vehicle: saline 93 % of control and 95 % of control and 102 % of control | endpoint: mean survival time, dose: 400.0 mg/kg/injection, schedule: Q01DX009 (oral), vehicle: saline 98 % of control | endpoint: mean survival time, dose: 800.0 mg/kg/injection, schedule: Q01DX001 (ip), vehicle: saline 94 % of control | endpoint: mean survival time, dose: 800.0 mg/kg/injection, schedule: Q01DX005 (iv), vehicle: saline 98 % of control | endpoint: mean survival time, dose: 800.0 mg/kg/injection, schedule: Q01DX009 (im), vehicle: saline 93 % of control | endpoint: mean survival time, dose: 800.0 mg/kg/injection, schedule: Q01DX009 (oral), vehicle: saline 94 % of control | endpoint: mean survival time, dose: 1200.0 mg/kg/injection, schedule: Q01DX001 (ip), vehicle: saline 100 % of control | endpoint: mean survival time, dose: 1600.0 mg/kg/injection, schedule: Q01DX001 (ip), vehicle: saline 100 % of control | endpoint: mean survival time, dose: 1600.0 mg/kg/injection, schedule: Q01DX009 (im), vehicle: saline 98 % of control | endpoint: mean survival time, dose: 1600.0 mg/kg/injection, schedule: Q01DX009 (oral), vehicle: saline 96 % of control | endpoint: median survival time, dose: 500.0 mg/kg/injection, schedule: Q01DX001 (oral), vehicle: water 100 % of control | endpoint: median survival time, dose: 1000.0 mg/kg/injection, schedule: Q01DX001 (oral), vehicle: water 100 % of control | endpoint: median survival time, dose: 1500.0 mg/kg/injection, schedule: Q01DX001 (oral), vehicle: water 94 % of control | endpoint: median survival time, dose: 3000.0 mg/kg/injection, schedule: Q01DX001 (oral), vehicle: water 100 % of control
